Assay: Vitamin E stability aging of the compositions in clear PET packaging
Assay type: physicochemical
Method: Samples of each example are put on stability aging using clear PET packaging at room temperature, 77° F.; high temperature, 110° F.; and in the window for natural sunlight exposure. Samples are evaluated for vitamin content initially, then again at 4,8, and 13 weeks. Below are the results.

SMILES: CC(C)(C)c1cc(O)ccc1O [2-tertiary butyl hydroquinone]
- retention of vitamin E compared with other antioxidants (77° F. and 110° F.): essentially equivalent to the other antioxidants
- retention of vitamin E in sunlight compared with other test antioxidants (sunlight): substantially more retention of vitamin E in sunlight than any of the other test antioxidants

From US20030108576A1, “Composition” (Colgate-Palmolive Company, priority 2001, published 2003)
